Reference: patent US20260042764A1, “COMPOSITIONS AND METHODS FOR INHIBITION OF KRAS” (TheRas, Inc., priority 2022, published 2026)

Key:
SW620 cells (KRAS G12V) = experiment: Cell-based pERK HTRF assay in SW620 cell (Biological Example 4)
Procedure, shortened: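 SW620 cells were treated for 4 h with compound in a 9-point half-log series from 1 μM top (0.25% DMSO), then lysed. Phospho-ERK was detected by HTRF with d2 and Eu cryptate antibodies after 4–24 h at room temperature, read at 615 nm emission.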

[1] = molecular target: T1, Avi-KRAS G12D (1-169) GppNHp/RAF1 RBD-3xFLAG (52-151) (Homo sapiens, UniProt P01116, G12D); experiment: Raf1-KRAS G12D-GppNHP disruption HTRF assay (Biological Example 1); type: binding; settings: KRAS G12D-GppNHp/RAF1 RBD HTRF
T1 construct: Avi-KRAS G12D (1-169)
Procedure, shortened: (§1)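 Compounds were tested for disruption of KRAS–RAF1 RBD binding by HTRF in 50 mM Tris pH 7.5, 100 mM NaCl, 5 mM MgCl2, 0.1% BSA, 0.01% Tween, 10% DMSO. Protein mix was incubated 1 h at room temperature with shaking, then detection reagents added for another 1 h. Activity expressed as percent of DMSO control.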

[2] = molecular target: T2, Avi-KRAS WT (1-169) GppNHp/RAF1 RBD-3xFLAG (52-151) (Homo sapiens, UniProt P01116); experiment: Raf1-KRAS WT-GppNHP disruption HTRF assay (Biological Example 1); type: binding; settings: KRAS WT-GppNHp/RAF1 RBD HTRF
T2 construct: Avi-KRAS WT (1-169)
Procedure, shortened: as §1

[3] = molecular target: T3, Avi-KRAS WT (2-169) GTP/RAF1 RBD-3xFLAG (51-131) (Homo sapiens, UniProt P01116); experiment: Raf1-KRAS WT-GTP disruption HTRF assay (Biological Example 3); type: binding; settings: KRAS WT, GTP-loaded
T3 construct: Avi-KRAS WT (2-169)
Procedure, shortened: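 HTRF PPI read-out (ex 320 nm, em 615 nm) after 1 h RT incubation with shaking; data as % activity vs DMSO (100%), IC50 from curve fit. Complex 50 nM, RBD reagent 75 nM; compound 30-0.005 μM, 3-fold.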

[4] = Homo sapiens, SW-620, SW620 (KRAS G12V) cells
[5] = Homo sapiens, SW-620, SW620 (KRAS G12V) cells, pERK HTRF
[6] = SW620 (KRAS G12V) cells, pERK HTRF

T2 sequence (P01116 1-169 isoform P01116-2): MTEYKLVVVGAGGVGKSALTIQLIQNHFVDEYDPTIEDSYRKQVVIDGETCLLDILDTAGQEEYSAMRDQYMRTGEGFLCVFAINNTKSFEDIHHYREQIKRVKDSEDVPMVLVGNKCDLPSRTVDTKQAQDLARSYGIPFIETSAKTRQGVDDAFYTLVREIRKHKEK
T3 sequence (P01116 2-169 isoform P01116-2): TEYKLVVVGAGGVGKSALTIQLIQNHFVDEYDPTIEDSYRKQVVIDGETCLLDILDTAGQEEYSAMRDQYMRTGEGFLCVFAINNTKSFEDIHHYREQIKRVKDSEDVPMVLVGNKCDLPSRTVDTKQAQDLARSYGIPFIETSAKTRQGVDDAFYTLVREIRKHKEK
T1 sequence (P01116 1-169 isoform P01116-2 G12D): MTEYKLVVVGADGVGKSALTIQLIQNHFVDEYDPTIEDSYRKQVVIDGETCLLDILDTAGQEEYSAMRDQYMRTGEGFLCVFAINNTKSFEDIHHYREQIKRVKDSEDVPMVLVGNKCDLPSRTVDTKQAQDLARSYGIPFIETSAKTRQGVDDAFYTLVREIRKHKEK

| Compound | IC50 (SW620 cells (KRAS G12V); [4]) [nM] | IC50 (SW620 cells (KRAS G12V); [5]) [nM] | IC50 [1] [nM] | IC50 [2] [nM] | IC50 [3] [nM] | IC50 (SW620 cells (KRAS G12V); [6]) [nM] | IC50 (SW620 cells (KRAS G12V); SW620 (KRAS G12V) cells) [nM] |
| --- | --- | --- | --- | --- | --- | --- | --- |
| Cc1c(C(=O)N(C)C)nn2c1CN(c1nc(OC[C@@]34CCCN3C[C@H](F)C4)nc3c(F)c(-c4ccc(F)c5sc(N)c(C#N)c45)c(C(F)(F)F)cc13)CC2 [Compound 501] | < 100 | < 100 | < 100 | 100 to 1000 | 100 to 1000 | – | – |
| N#Cc1c(N)sc2c(F)ccc(-c3c(C(F)(F)F)cc4c(N5CCn6nc(N7CCOCC7)cc6C5)nc(OC[C@@]56CCCN5C[C@H](F)C6)nc4c3F)c12 [Compound 485] | – | < 100 | 1000 to 10000 | 1000 to 10000 | – | – | – |
| CCN(c1nc(OC[C@@]23CCCN2C[C@H](F)C3)nc2c(F)c(-c3ccc(F)c4sc(N)c(C#N)c34)c(C(F)(F)F)cc12)[C@H]1CCN(C(=O)C(C)C)C1 (single isomer, unassigned) [Compound 469] | < 100 | < 100 | < 100 | < 100 | ≤ 100 | – | – |
| CCN(c1nc(OC[C@@]23CCCN2C[C@H](F)C3)nc2c(F)c(-c3ccc(F)c4sc(N)c(C#N)c34)c(C(F)(F)F)cc12)[C@H]1CCS(=O)(=O)C1 (atropisomer, axis not shown) [Compound 492] | – | – | < 100 | < 100 | – | < 100 | – |
| Cc1cc2n(n1)CCN(c1nc(OCC34CCCN3CC(F)C4)nc3c(F)c(-c4ccc(F)c5sc(N)c(C#N)c45)c(C(F)(F)F)cc13)C2 (centres unmarked) [Compound 484] | – | < 100 | 1000 to 10000 | 1000 to 10000 | – | – | – |
| CCN(c1nc(OC[C@@]23CCCN2C[C@H](F)C3)nc2c(F)c(-c3ccc(F)c4sc(N)c(C#N)c34)c(C(F)(F)F)cc12)[C@H]1CCN(C(=O)C(C)C)C1 (atropisomer, axis not shown) [Compound 468] | – | – | > 10000 | > 10000 | – | > 1000 | – |
| CCN(c1nc(OC[C@@]23CCCN2C[C@H](F)C3)nc2c(F)c(-c3ccc(F)c4sc(N)c(C#N)c34)c(C(F)(F)F)cc12)[C@H]1C[C@H](C)N(C(=O)C2CC2)C1 [Compound 470] | – | < 100 | < 100 | < 100 | – | – | – |
| CCOC(=O)N1CC[C@H](N(CC)c2nc(OC[C@@]34CCCN3C[C@H](F)C4)nc3c(F)c(-c4ccc(F)c5sc(N)c(C#N)c45)c(C(F)(F)F)cc23)C1 [Compound 467] | – | < 100 | < 100 | 100 to 1000 | – | – | – |

More lines, now with the values ahead:

| IC50 (SW620 cells (KRAS G12V); [4]) [nM] | IC50 (SW620 cells (KRAS G12V); [5]) [nM] | IC50 [1] [nM] | IC50 [2] [nM] | IC50 [3] [nM] | IC50 (SW620 cells (KRAS G12V); [6]) [nM] | IC50 (SW620 cells (KRAS G12V); SW620 (KRAS G12V) cells) [nM] | Compound |
| --- | --- | --- | --- | --- | --- | --- | --- |
| < 100 | – | – | – | 100 to 1000 | – | – | CCN(c1nc(OC[C@@]23CCCN2C[C@H](F)C3)nc2c(F)c(-c3ccc(F)c4sc(N)c(C#N)c34)c(C(F)(F)F)cc12)[C@H]1CCN(C(=O)N(C)C)C1 (atropisomer, axis not shown) [Compound 540, (3S)-3-[[7-(2-amino-3-cyano-7-fluoro-benzothiophen-4-yl)-8-fluoro-2-[[(2R,8S)-2-fluoro-1,2,3,5,6,7-hexahydropyrrolizin-8-yl]methoxy]-6-(trifluoromethyl)quinazolin-4-yl]-ethyl-amino]-N,N-dimethyl-pyrrolidine-1-carboxamide] |
| < 100 | < 100 | < 100 | < 100 | 100 to 1000 | – | – | CCN(c1nc(OC[C@@]23CCCN2C[C@H](F)C3)nc2c(F)c(-c3ccc(F)c4sc(N)c(C#N)c34)c(C(F)(F)F)cc12)[C@H]1C[C@@H]2COC(=O)N2C1 (atropisomer, axis not shown) [Compound 519] |
| < 100 | – | < 100 | < 100 | ≤ 100 | < 100 | – | CCC(=O)N1CC[C@@H](N(CC)c2nc(OC[C@@]34CCCN3C[C@H](F)C4)nc3c(F)c(-c4ccc(F)c5sc(N)c(C#N)c45)c(C(F)(F)F)cc23)[C@H]1C (atropisomer, axis not shown) [Compound 523] |
| < 100 | – | < 100 | < 100 | ≤ 100 | < 100 | – | CCN(c1nc(OC[C@@]23CCCN2C[C@H](F)C3)nc2c(F)c(-c3ccc(F)c4sc(N)c(C#N)c34)c(C(F)(F)F)cc12)[C@@H]1CCN(C(=O)C2CC2)[C@@H]1C (atropisomer, axis not shown) [Compound 524] |
| < 100 | < 100 | < 100 | < 100 | 100 to 1000 | – | – | CCN(c1nc(OC[C@@]23CCCN2C[C@H](F)C3)nc2c(F)c(-c3ccc(F)c4sc(N)c(C#N)c34)c(C(F)(F)F)cc12)[C@H]1C[C@H](C)N(C(=O)C2COC2)C1 (atropisomer, axis not shown) [Compound 539] |
| < 100 | < 100 | 100 to 1000 | 100 to 1000 | 100 to 1000 | – | – | CCN(c1nc(OC[C@@]23CCCN2C[C@H](F)C3)nc2c(F)c(-c3ccc(F)c4sc(N)c(C#N)c34)c(C(F)(F)F)cc12)[C@@H]1C[C@H]2CCC(=O)N2C1 (atropisomer, axis not shown) [Compound 532] |
| < 100 | < 100 | < 100 | < 100 | ≤ 100 | – | – | CCN1C[C@@H](N(CC)c2nc(OC[C@@]34CCCN3C[C@H](F)C4)nc3c(F)c(-c4ccc(F)c5sc(N)c(C#N)c45)c(C(F)(F)F)cc23)CC1=O [Compound 529, 2-amino-4-(4-(ethyl((S)-1-ethyl-5-oxopyrrolidin-3-yl)amino)-8-fluoro-2-(((2R,7aS)-2-fluorotetrahydro-1H-pyrrolizin-7a(5H)-yl)methoxy)-6-(trifluoromethyl)quinazolin-7-yl)-7-fluorobenzo[b]thiophene-3-carbonitrile] |
| < 100 | < 100 | < 100 | 100 to 1000 | 100 to 1000 | – | – | CN(C)C(=O)c1nn2c(c1Cl)CN(c1nc(OC[C@@]34CCCN3C[C@H](F)C4)nc3c(F)c(-c4ccc(F)c5sc(N)c(C#N)c45)c(C(F)(F)F)cc13)CC2 [Compound 517] |
| < 100 | < 100 | < 100 | < 100 | ≤ 100 | – | – | CCN(c1nc(OC[C@@]23CCCN2C[C@H](F)C3)nc2c(F)c(-c3ccc(F)c4sc(N)c(C#N)c34)c(C(F)(F)F)cc12)[C@H]1C[C@H]2CN(C)C(=O)N2C1 (atropisomer, axis not shown; (aS)) [Compound 543, 2-amino-4-((S)-4-(ethyl((6S,7aS)-2-methyl-3-oxohexahydro-1H-pyrrolo[1,2-c]imidazol-6-yl)amino)-8-fluoro-2-(((2R,7aS)-2-fluorotetrahydro-1H-pyrrolizin-7a(5H)-yl)methoxy)-6-(trifluoromethyl)quinazolin-7-yl)-7-fluorobenzo[b]thiophene-3-carbonitrile] |
| – | – | < 100 | < 100 | 100 to 1000 | < 100 | < 100 | CCN(c1nc(OC[C@@]23CCCN2C[C@H](F)C3)nc2c(F)c(-c3ccc(F)c4sc(N)c(C#N)c34)c(C(F)(F)F)cc12)[C@H]1CCN(C(=O)OC)C1 (atropisomer, axis not shown) [Compound 541, methyl(3S)-3-[[7-(2-amino-3-cyano-7-fluoro-benzothiophen-4-yl)-8-fluoro-2-[[(2R,8S)-2-fluoro-1,2,3,5,6,7-hexahydropyrrolizin-8-yl]methoxy]-6-(trifluoromethyl)quinazolin-4-yl]-ethyl-amino]pyrrolidine-1-carboxylate] |
| < 100 | < 100 | 100 to 1000 | 100 to 1000 | 100 to 1000 | – | – | CCN(c1nc(OC[C@@]23CCCN2C[C@H](F)C3)nc2c(F)c(-c3ccc(F)c4sc(N)c(C#N)c34)c(C(F)(F)F)cc12)[C@@H]1C[C@H](C)N(C(C)=O)C1 (atropisomer, axis not shown) [Compound 534] |
